Laboratory results published in patent US20070293477A1, “Novel Compounds” (SMITHKLINE BEECHAM CORPORATION, priority 2004, published 2007).

Key:
TRPV4 channel receptors = target: T1, TRPV4 channel receptors (Bos taurus, UniProt A0A8F4X677); assay: Ca2+ influx, Fura-2 fluorescence on FlexStation in bovine articular chondrocytes; type: cell-based; conditions: Fura-2, FlexStation
T1 construct: obtained using this method in bovine articular chondrocytes; endogenous in cells; host or cells: bovine articular chondrocytes
Text: Ca^2+ influx mediated through TRPV4 channel receptors can be measured using articular chondrocytes from such species as, but not limited to, human, rat, canine, rabbit, monkey, and bovine, using standard techniques in the art such as, but not limited to, Fura-2 (Invitrogen/Molecular Probes, Eugene, Oreg.) fluorescence using a FlexStation (manufactured by Molecular Devices, Sunnyvale, Calif.). Table 1 lists biological data for several representative compounds obtained using this method in bovine articular chondrocytes.
(§1) All exemplary compounds of the present invention were assessed using at least one of the biological assays presented above. Compounds presented in the Examples had EC50 values of about 0.01 μM to about 30 μM as measured by Flex Station using bovine articular chondrocytes and pEC50 values between about 4.5 to about 7.0 as measured by FLIPR assay using TRPV4 expressing HEK cells.

TRPV4 channel receptor = target: T2, TRPV4 channel receptor (Homo sapiens, UniProt Q9HBA0); assay: FLIPR assay using TRPV4 expressing HEK cells; type: cell-based; conditions: FLIPR method; pEC50 = −log10(EC50 μM)
T2 construct: expressed in transfected cells; host or cells: HEK cells
Text: Other techniques used to measure TRPV4 channel receptor activation in chondrocytes include, but are not limited to: FLIPR assay, measuring a compound's capability to reduce the amount of ADAMTSs produced and/or released in response to a catabolic stimulus by a cell comprising a TRPV4 channel receptor; measuring a compound's capability to reduce the amount of MMPs produced and/or released in response to a catabolic stimulus by a cell comprising a TRPV4 channel receptor; measuring a compound's capability to effect the amount of nitric oxide (NO) produced in response to a catabolic stimulus by a cell comprising a TRPV4 channel receptor; and measuring a compound's capability to attenuate the inhibition of matrix synthesis in response to a catabolic stimulus by a cell comprising a TRPV4 channel receptor.
as §1

T1 sequence (A0A8F4X677 1-871): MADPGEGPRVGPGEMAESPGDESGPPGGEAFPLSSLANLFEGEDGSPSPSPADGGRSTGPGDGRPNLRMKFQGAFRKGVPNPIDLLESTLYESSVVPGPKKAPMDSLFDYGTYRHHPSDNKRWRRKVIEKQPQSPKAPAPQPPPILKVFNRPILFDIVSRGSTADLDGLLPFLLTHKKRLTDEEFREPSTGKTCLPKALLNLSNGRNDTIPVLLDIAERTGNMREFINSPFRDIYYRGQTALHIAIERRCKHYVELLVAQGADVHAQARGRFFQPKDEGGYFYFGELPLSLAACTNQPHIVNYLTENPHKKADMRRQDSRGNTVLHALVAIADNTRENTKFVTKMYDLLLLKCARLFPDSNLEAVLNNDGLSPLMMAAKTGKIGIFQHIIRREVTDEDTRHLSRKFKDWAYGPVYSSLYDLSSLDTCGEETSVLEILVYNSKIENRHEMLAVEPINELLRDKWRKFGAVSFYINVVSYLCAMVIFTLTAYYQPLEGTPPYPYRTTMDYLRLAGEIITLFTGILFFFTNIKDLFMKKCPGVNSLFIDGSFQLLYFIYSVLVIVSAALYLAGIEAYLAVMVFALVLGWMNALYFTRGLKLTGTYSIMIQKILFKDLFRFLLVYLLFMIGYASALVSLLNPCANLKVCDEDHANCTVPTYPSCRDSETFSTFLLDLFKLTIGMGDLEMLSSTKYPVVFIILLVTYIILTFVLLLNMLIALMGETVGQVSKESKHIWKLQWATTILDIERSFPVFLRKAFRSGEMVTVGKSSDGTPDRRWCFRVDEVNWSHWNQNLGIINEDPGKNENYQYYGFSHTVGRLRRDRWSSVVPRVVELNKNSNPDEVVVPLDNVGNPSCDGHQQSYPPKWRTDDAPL
T2 sequence (Q9HBA0 whole entry): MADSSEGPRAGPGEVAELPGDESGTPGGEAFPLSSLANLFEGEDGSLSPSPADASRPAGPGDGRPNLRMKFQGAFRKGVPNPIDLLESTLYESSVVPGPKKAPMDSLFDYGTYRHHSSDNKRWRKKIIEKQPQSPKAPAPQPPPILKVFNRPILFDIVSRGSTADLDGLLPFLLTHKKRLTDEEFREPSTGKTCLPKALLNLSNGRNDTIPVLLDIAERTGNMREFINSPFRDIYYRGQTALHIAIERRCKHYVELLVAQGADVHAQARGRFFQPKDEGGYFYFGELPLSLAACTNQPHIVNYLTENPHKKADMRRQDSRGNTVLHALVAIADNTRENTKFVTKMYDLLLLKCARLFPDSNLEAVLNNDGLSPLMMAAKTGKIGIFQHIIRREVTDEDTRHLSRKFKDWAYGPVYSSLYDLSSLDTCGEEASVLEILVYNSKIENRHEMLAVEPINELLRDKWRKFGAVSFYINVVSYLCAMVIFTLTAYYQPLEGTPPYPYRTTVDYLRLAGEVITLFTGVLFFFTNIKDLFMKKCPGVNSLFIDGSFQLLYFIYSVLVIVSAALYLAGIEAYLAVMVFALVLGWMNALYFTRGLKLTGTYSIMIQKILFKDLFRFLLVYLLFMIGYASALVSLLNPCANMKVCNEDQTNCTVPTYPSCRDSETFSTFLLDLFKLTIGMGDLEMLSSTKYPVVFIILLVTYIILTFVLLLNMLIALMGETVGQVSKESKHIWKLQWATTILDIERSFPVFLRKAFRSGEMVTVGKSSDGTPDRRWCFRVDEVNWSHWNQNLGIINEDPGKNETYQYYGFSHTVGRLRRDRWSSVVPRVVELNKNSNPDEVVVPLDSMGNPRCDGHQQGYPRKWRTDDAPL

EC50 (TRPV4 channel receptors) [µM]	EC50 (TRPV4 channel receptor) [µM]	Compound
10 to 30	–	CC(C)C[C@H](NC(=O)c1cc2ccccc2s1)C(=O)N[C@@H]1CCCN(S(=O)(=O)c2ccc(C#N)cc2)CC1 [Example 8, N-{(1S)-1-[({(4R)-1-[(4-Cyanophenyl)sulfonyl]hexahydro-1H-azepin-4-yl}amino)carbonyl]-3-methylbutyl}-1-benzothiophene-2-carboxamide]
1.01 to 10	1 to 7.94	CC(C)C[C@H](NC(=O)c1cc2ccccc2n1C)C(=O)N(C)C1CCCN(S(=O)(=O)c2ccccc2C#N)CC1 (stereo partly drawn) [Example 11, N-((1S)-1-{[{1-[(2-Cyanophenyl)sulfonyl]hexahydro-1H-azepin-4-yl}(methyl)amino]carbonyl}-3-methylbutyl)-1-methyl-1H-indole-2-carboxamide]
–	0.1 to 0.794	CC(C)C[C@H](NC(=O)c1cc2ccccc2s1)C(=O)N[C@@H]1CCCN(S(=O)(=O)c2ccc(Cl)cc2Cl)CC1 [Example 6, N-{(1S)-1-[({(4R)-1-[(2,4-Dichlorophenyl)sulfonyl]hexahydro-1H-azepin-4-yl}amino)carbonyl]-3-methylbutyl}-1-benzothiophene-2-carboxamide]
0.14 to 1	–	CC(C)C[C@H](NC(=O)c1cc2ccccc2s1)C(=O)N[C@@H]1CCCN(S(=O)(=O)c2ccccc2C#N)CC1 [Example 5, N-{(1S)-1-[({(4R)-1-[(2-cyanophenyl)sulfonyl]hexahydro-1H-azepin-4-yl}amino)carbonyl]-3-methylbutyl}-1-benzothiophene-2-carboxamide]
–	10 to 31.6	CC(C)C[C@H](NC(=O)c1cc2ccccc2n1C)C(=O)NC1CCCN(S(=O)(=O)c2ccc(Cl)cc2)CC1 (mixture of isomers) [Example 3, 1-Methyl-1H-indole-2-carboxylic acid {(S)-1-[1-(4-chloro-benzenesulfonyl)-azepan-4-ylcarbamoyl]-3-methyl-butyl}-amide]
